According to PubChem BioAssay AID270 (DTP/NCI, 2004):
Several values for one entry are separate records, joined by “and”; a condition that tells them apart may be missing. Identical values can stand only once. Records with an inconclusive call do not appear.

System: BDF1 mice, s.c. Lewis lung carcinoma, T/C %
Assay: NCI In Vivo Anticancer Drug Screen. Data for tumor model Lewis Lung Carcinoma (subcutaneous) in B6D2F1 (BDF1) mice
Procedure, shortened: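 Antitumor effect in vivo is scored from survival or tumor burden, reported as treated relative to vehicle controls.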

[1] = endpoint: median survival time, dose: 50.0 mg/kg/injection, schedule: Q01DX009 (ip), vehicle: saline, higher = longer survival
[2] = endpoint: mean tumor weight, dose: 12.5 mg/kg/injection, schedule: Q01DX011 (ip), vehicle: saline, higher = larger tumour
[3] = endpoint: mean tumor weight, dose: 25.0 mg/kg/injection, schedule: Q01DX011 (ip), vehicle: saline, higher = larger tumour
[4] = endpoint: mean tumor weight, dose: 50.0 mg/kg/injection, schedule: Q01DX011 (ip), vehicle: saline, higher = larger tumour
[5] = endpoint: mean tumor weight, dose: 100.0 mg/kg/injection, schedule: Q01DX011 (ip), vehicle: saline, higher = larger tumour

C[C@]12CCC(=O)C=C1CC[C@@H]1[C@@H]2[C@@H](O)C[C@@]2(C)[C@H]1CC[C@]2(O)C(=O)COC(=O)c1ccc([N+](=O)[O-])cc1Cl
T/C (endpoint: mean tumor weight, dose: 25.0 mg/kg/injection, schedule: Q01DX011 (sc), vehicle: steriod suspending solution, higher = larger tumour): 65 % of control
T/C (endpoint: mean tumor weight, dose: 50.0 mg/kg/injection, schedule: Q01DX011 (sc), vehicle: steriod suspending solution, higher = larger tumour): 71 % of control
T/C (endpoint: mean tumor weight, dose: 100.0 mg/kg/injection, schedule: Q01DX011 (sc), vehicle: steriod suspending solution, higher = larger tumour): 47 % of control
T/C (endpoint: mean tumor weight, dose: 200.0 mg/kg/injection, schedule: Q01DX011 (sc), vehicle: steriod suspending solution, higher = larger tumour): 53 % of control
T/C (endpoint: mean tumor weight, dose: 250.0 mg/kg/injection, schedule: Q01DX011 (sc), vehicle: steriod suspending solution, higher = larger tumour): 18 % of control
T/C (endpoint: mean tumor weight, dose: 500.0 mg/kg/injection, schedule: Q01DX011 (sc), vehicle: steriod suspending solution, higher = larger tumour): 25 % of control
T/C (endpoint: mean tumor weight, dose: 750.0 mg/kg/injection, schedule: Q01DX011 (sc), vehicle: steriod suspending solution, higher = larger tumour): 13 % of control

NC(Cc1ccc(N(CCCl)CCCl)cc1)C(=O)O (configuration not stated)
T/C (endpoint: mean tumor weight, dose: 1.5 mg/kg/injection, schedule: Q01DX011 (ip), vehicle: carboxymethylcellulose (CMC), higher = larger tumour): 75 % of control
T/C (endpoint: mean tumor weight, dose: 2.5 mg/kg/injection, schedule: Q01DX011 (ip), vehicle: saline, higher = larger tumour): 52 % of control
T/C (endpoint: mean tumor weight, dose: 3.0 mg/kg/injection, schedule: Q01DX011 (ip), vehicle: carboxymethylcellulose (CMC), higher = larger tumour): 50 % of control
T/C (endpoint: mean tumor weight, dose: 4.5 mg/kg/injection, schedule: Q01DX011 (ip), vehicle: carboxymethylcellulose (CMC), higher = larger tumour): 32 % of control
T/C (endpoint: mean tumor weight, dose: 5.0 mg/kg/injection, schedule: Q01DX011 (ip), vehicle: saline, higher = larger tumour): 33 % of control
T/C (endpoint: mean tumor weight, dose: 10.0 mg/kg/injection, schedule: Q01DX011 (ip), vehicle: saline, higher = larger tumour): 3 % of control

CNC1C(OC2C(OC3C(O)C(O)C(N=C(N)N)C(O)C3N=C(N)N)OC(C)C2(O)C=O)OC(CO)C(O)C1O (configuration not stated)
T/C (endpoint: median survival time, dose: 50.0 mg/kg/injection, schedule: Q01DX009 (ip), vehicle: water, higher = longer survival): 95 % of control
T/C (endpoint: median survival time, dose: 100.0 mg/kg/injection, schedule: Q01DX009 (ip), vehicle: water, higher = longer survival): 102 % of control
T/C (endpoint: median survival time, dose: 200.0 mg/kg/injection, schedule: Q01DX009 (ip), vehicle: water, higher = longer survival): 105 % of control

CS(=O)(=O)OCCCCCCCCCOS(C)(=O)=O
T/C (endpoint: mean tumor weight, dose: 12.5 mg/kg/injection, schedule: Q01DX011 (ip), vehicle: carboxymethylcellulose (CMC), higher = larger tumour): 104 % of control and 105 % of control
T/C (endpoint: mean tumor weight, dose: 25.0 mg/kg/injection, schedule: Q01DX011 (ip), vehicle: carboxymethylcellulose (CMC), higher = larger tumour): 68 % of control and 84 % of control

CCN(CC)CCNc1ccc([N+](=O)[O-])c2sc3ccccc3c(=O)c12
T/C (endpoint: mean tumor weight, dose: 12.5 mg/kg/injection, schedule: Q01DX011 (ip), vehicle: other, higher = larger tumour): 88 % of control
T/C (endpoint: mean tumor weight, dose: 25.0 mg/kg/injection, schedule: Q01DX011 (ip), vehicle: other, higher = larger tumour): 102 % of control
T/C (endpoint: mean tumor weight, dose: 50.0 mg/kg/injection, schedule: Q01DX011 (ip), vehicle: other, higher = larger tumour): 84 % of control

CC1(C)OCC(CO)(Nc2nc(N3CC3)nc(N3CC3)n2)CO1
T/C (endpoint: median survival time, dose: 0.62 mg/kg/injection, schedule: Q01DX009 (ip), vehicle: saline, higher = longer survival): 100 % of control and 119 % of control
T/C (endpoint: median survival time, dose: 1.25 mg/kg/injection, schedule: Q01DX009 (ip), vehicle: saline, higher = longer survival): 115 % of control and 116 % of control
T/C (endpoint: median survival time, dose: 2.5 mg/kg/injection, schedule: Q01DX009 (ip), vehicle: saline, higher = longer survival): 112 % of control

OCC1OC(Oc2ccc(O)cc2)C(O)C(O)C1O (configuration not stated)
T/C [1]: 95 % of control
T/C (endpoint: median survival time, dose: 100.0 mg/kg/injection, schedule: Q01DX009 (ip), vehicle: saline, higher = longer survival): 106 % of control
T/C (endpoint: median survival time, dose: 200.0 mg/kg/injection, schedule: Q01DX009 (ip), vehicle: saline, higher = longer survival): 92 % of control
T/C (endpoint: median survival time, dose: 400.0 mg/kg/injection, schedule: Q01DX009 (ip), vehicle: saline, higher = longer survival): 106 % of control

O=c1[nH]cc(N(CCCl)CCCl)c(=O)[nH]1
T/C (endpoint: mean tumor weight, dose: 0.37 mg/kg/injection, schedule: Q01DX011 (ip), vehicle: carboxymethylcellulose (CMC), higher = larger tumour): 70 % of control
T/C (endpoint: mean tumor weight, dose: 0.57 mg/kg/injection, schedule: Q01DX011 (ip), vehicle: carboxymethylcellulose (CMC), higher = larger tumour): 59 % of control
T/C (endpoint: mean tumor weight, dose: 0.85 mg/kg/injection, schedule: Q01DX011 (ip), vehicle: carboxymethylcellulose (CMC), higher = larger tumour): 38 % of control

C=C1C(=O)O[C@@H]2[C@H]3O[C@]3(C)CCC=C(C)CC[C@@H]12
T/C (endpoint: median survival time, dose: 12.5 mg/kg/injection, schedule: Q01DX009 (ip), vehicle: Klucel (hydroxypropylcellulose) (HPC), higher = longer survival): 110 % of control
T/C (endpoint: median survival time, dose: 25.0 mg/kg/injection, schedule: Q01DX009 (ip), vehicle: Klucel (hydroxypropylcellulose) (HPC), higher = longer survival): 97 % of control
T/C (endpoint: median survival time, dose: 50.0 mg/kg/injection, schedule: Q01DX009 (ip), vehicle: Klucel (hydroxypropylcellulose) (HPC), higher = longer survival): 93 % of control

O=c1[nH]cnc2nc[nH]c12
T/C (endpoint: mean tumor weight, dose: 62.5 mg/kg/injection, schedule: Q01DX011 (ip), vehicle: saline, higher = larger tumour): 121 % of control
T/C (endpoint: mean tumor weight, dose: 125.0 mg/kg/injection, schedule: Q01DX011 (ip), vehicle: saline, higher = larger tumour): 108 % of control
T/C (endpoint: mean tumor weight, dose: 250.0 mg/kg/injection, schedule: Q01DX011 (ip), vehicle: saline, higher = larger tumour): 107 % of control
T/C (endpoint: mean tumor weight, dose: 500.0 mg/kg/injection, schedule: Q01DX011 (ip), vehicle: saline, higher = larger tumour): 76 % of control

S=P(N1CC1)(N1CC1)N1CC1
T/C (endpoint: mean tumor weight, dose: 0.75 mg/kg/injection, schedule: Q01DX011 (ip), vehicle: water, higher = larger tumour): 79 % of control
T/C (endpoint: mean tumor weight, dose: 1.5 mg/kg/injection, schedule: Q01DX011 (ip), vehicle: water, higher = larger tumour): 81 % of control
T/C (endpoint: mean tumor weight, dose: 3.0 mg/kg/injection, schedule: Q01DX011 (ip), vehicle: water, higher = larger tumour): 44 % of control
T/C (endpoint: mean tumor weight, dose: 6.0 mg/kg/injection, schedule: Q01DX011 (ip), vehicle: water, higher = larger tumour): 21 % of control
T/C (endpoint: median survival time, dose: 0.5 mg/kg/injection, schedule: Q01DX009 (ip), vehicle: saline, higher = longer survival): 103 % of control
T/C (endpoint: median survival time, dose: 1.0 mg/kg/injection, schedule: Q01DX009 (ip), vehicle: saline, higher = longer survival): 100 % of control
T/C (endpoint: median survival time, dose: 1.0 mg/kg/injection, schedule: Q02DX009 (ip), vehicle: saline, higher = longer survival): 110 % of control
T/C (endpoint: median survival time, dose: 1.5 mg/kg/injection, schedule: Q01DX009 (ip), vehicle: Klucel (hydroxypropylcellulose) (HPC), higher = longer survival): 103 % of control
T/C (endpoint: median survival time, dose: 2.0 mg/kg/injection, schedule: Q01DX009 (ip), vehicle: saline, higher = longer survival): 100 % of control
T/C (endpoint: median survival time, dose: 2.0 mg/kg/injection, schedule: Q02DX009 (ip), vehicle: saline, higher = longer survival): 98 % of control
T/C (endpoint: median survival time, dose: 3.0 mg/kg/injection, schedule: Q01DX009 (ip), vehicle: Klucel (hydroxypropylcellulose) (HPC), higher = longer survival): 113 % of control
T/C (endpoint: median survival time, dose: 4.0 mg/kg/injection, schedule: Q01DX009 (ip), vehicle: saline, higher = longer survival): 86 % of control
T/C (endpoint: median survival time, dose: 4.0 mg/kg/injection, schedule: Q02DX009 (ip), vehicle: saline, higher = longer survival): 102 % of control
T/C (endpoint: median survival time, dose: 8.0 mg/kg/injection, schedule: Q02DX009 (ip), vehicle: saline, higher = longer survival): 94 % of control

O=S(=O)(O)O.[NH-]CC1(C[NH-])CCCCC1.[Pt+2]
T/C (endpoint: median survival time, dose: 6.0 mg/kg/injection, schedule: Q04DX003 (ip), vehicle: other, higher = longer survival): 100 % of control

CC(=O)OC(C)C1C2=C(C(=O)CC1(C)O)C(=O)c1c(ccc(-c3ccc4c(c3O)C(=O)C3=C(C4=O)C(C(C)OC(C)=O)C(C)(O)CC3=O)c1O)C2=O (configuration not stated)
T/C (endpoint: median survival time, dose: 0.1 mg/kg/injection, schedule: Q01DX009 (ip), vehicle: saline + alcohol, higher = longer survival): 112 % of control
T/C (endpoint: median survival time, dose: 0.38 mg/kg/injection, schedule: Q01DX009 (ip), vehicle: saline + alcohol, higher = longer survival): 122 % of control
T/C (endpoint: median survival time, dose: 0.75 mg/kg/injection, schedule: Q01DX009 (ip), vehicle: saline + alcohol, higher = longer survival): 119 % of control
T/C (endpoint: median survival time, dose: 1.5 mg/kg/injection, schedule: Q01DX009 (ip), vehicle: saline + alcohol, higher = longer survival): 97 % of control
T/C (endpoint: median survival time, dose: 1.56 mg/kg/injection, schedule: Q01DX009 (ip), vehicle: saline with Tween-80, higher = longer survival): 101 % of control

CS(=O)(=O)OCCC(=O)N1CCN(C(=O)CCOS(C)(=O)=O)CC1
T/C [2]: 85 % of control
T/C [3]: 66 % of control
T/C [4]: 85 % of control
T/C [5]: 46 % of control
T/C (endpoint: median survival time, dose: 1.56 mg/kg/injection, schedule: Q01DX009 (ip), vehicle: saline, higher = longer survival): 109 % of control
T/C (endpoint: median survival time, dose: 3.12 mg/kg/injection, schedule: Q01DX009 (ip), vehicle: saline, higher = longer survival): 103 % of control
T/C (endpoint: median survival time, dose: 6.25 mg/kg/injection, schedule: Q01DX009 (ip), vehicle: saline, higher = longer survival): 106 % of control
T/C (endpoint: median survival time, dose: 12.5 mg/kg/injection, schedule: Q01DX009 (ip), vehicle: saline, higher = longer survival): 103 % of control
T/C (endpoint: median survival time, dose: 25.0 mg/kg/injection, schedule: Q01DX009 (ip), vehicle: saline, higher = longer survival): 102 % of control
T/C [1]: 114 % of control

O=C(/C=C/c1ccc(O)c(O)c1)c1ccc(O)c(O)c1O
T/C [2]: 57 % of control
T/C [3]: 89 % of control
T/C [4]: 64 % of control
T/C [5]: 59 % of control
